Measurements taken from ChEMBL document CHEMBL2073838, “Selectivity of the multidrug resistance modulator, LY335979, for P-glycoprotein and effect on cytochrome P-450 activities” (J Pharmacol Exp Ther, 1999).

Assays:
[1] = molecular target: ATP-binding cassette sub-family C member 2 (Homo sapiens, UniProt Q92887); experiment: TP_TRANSPORTER: inhibition of LTC4 uptake (LTC4: 0.05 uM, MK571: 10 uM) in membrane vesicles from MRP2-expressing MDCK cells; type: functional, cell membranes, Membrane vesicle; settings: dog
ATP-binding cassette sub-family C member 2, sequence (Q92887 whole entry): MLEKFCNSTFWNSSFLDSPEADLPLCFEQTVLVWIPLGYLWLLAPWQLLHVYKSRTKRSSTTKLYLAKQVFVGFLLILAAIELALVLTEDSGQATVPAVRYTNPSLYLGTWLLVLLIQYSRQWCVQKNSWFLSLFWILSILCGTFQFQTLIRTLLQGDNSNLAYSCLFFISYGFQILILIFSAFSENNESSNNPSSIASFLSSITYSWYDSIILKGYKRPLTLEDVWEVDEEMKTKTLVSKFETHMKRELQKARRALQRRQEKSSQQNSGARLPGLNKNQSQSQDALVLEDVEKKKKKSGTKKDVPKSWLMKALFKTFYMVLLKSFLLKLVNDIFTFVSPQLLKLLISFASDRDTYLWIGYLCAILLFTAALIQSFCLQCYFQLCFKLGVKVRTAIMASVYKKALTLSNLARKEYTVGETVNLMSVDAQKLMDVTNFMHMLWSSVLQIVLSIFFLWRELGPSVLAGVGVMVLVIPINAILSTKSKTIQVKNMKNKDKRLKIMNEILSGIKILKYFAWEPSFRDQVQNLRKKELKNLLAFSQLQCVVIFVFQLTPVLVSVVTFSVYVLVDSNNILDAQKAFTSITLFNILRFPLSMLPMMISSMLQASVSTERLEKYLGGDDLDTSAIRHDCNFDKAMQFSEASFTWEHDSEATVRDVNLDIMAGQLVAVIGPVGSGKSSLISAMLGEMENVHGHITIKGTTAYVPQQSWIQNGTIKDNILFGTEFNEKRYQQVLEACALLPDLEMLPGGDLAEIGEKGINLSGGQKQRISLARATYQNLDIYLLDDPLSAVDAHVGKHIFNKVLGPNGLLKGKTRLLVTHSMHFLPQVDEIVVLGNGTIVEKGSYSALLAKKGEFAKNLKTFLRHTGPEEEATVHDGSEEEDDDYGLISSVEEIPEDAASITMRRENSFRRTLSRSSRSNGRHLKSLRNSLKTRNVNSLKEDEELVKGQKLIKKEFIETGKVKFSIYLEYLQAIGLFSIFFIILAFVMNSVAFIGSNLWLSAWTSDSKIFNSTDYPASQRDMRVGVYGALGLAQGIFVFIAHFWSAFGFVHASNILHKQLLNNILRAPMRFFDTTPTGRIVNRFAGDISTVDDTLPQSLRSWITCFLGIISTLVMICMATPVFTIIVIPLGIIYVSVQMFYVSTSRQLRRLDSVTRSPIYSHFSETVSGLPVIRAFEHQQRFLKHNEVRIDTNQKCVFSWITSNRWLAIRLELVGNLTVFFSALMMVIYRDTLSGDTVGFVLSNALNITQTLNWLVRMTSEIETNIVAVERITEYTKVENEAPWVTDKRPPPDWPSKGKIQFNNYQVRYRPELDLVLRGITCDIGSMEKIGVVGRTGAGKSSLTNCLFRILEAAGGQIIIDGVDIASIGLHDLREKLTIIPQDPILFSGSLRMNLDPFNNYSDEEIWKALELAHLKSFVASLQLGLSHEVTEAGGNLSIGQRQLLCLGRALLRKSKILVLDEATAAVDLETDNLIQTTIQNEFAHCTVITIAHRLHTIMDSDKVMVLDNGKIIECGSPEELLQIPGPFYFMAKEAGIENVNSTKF

[2] = molecular target: ATP-dependent translocase ABCB1 (Homo sapiens, UniProt P08183); experiment: TP_TRANSPORTER: cell accumulation in CCRF-CEM and CEM/VLB100 cells; type: functional, cell-based
ATP-dependent translocase ABCB1, sequence (P08183 whole entry): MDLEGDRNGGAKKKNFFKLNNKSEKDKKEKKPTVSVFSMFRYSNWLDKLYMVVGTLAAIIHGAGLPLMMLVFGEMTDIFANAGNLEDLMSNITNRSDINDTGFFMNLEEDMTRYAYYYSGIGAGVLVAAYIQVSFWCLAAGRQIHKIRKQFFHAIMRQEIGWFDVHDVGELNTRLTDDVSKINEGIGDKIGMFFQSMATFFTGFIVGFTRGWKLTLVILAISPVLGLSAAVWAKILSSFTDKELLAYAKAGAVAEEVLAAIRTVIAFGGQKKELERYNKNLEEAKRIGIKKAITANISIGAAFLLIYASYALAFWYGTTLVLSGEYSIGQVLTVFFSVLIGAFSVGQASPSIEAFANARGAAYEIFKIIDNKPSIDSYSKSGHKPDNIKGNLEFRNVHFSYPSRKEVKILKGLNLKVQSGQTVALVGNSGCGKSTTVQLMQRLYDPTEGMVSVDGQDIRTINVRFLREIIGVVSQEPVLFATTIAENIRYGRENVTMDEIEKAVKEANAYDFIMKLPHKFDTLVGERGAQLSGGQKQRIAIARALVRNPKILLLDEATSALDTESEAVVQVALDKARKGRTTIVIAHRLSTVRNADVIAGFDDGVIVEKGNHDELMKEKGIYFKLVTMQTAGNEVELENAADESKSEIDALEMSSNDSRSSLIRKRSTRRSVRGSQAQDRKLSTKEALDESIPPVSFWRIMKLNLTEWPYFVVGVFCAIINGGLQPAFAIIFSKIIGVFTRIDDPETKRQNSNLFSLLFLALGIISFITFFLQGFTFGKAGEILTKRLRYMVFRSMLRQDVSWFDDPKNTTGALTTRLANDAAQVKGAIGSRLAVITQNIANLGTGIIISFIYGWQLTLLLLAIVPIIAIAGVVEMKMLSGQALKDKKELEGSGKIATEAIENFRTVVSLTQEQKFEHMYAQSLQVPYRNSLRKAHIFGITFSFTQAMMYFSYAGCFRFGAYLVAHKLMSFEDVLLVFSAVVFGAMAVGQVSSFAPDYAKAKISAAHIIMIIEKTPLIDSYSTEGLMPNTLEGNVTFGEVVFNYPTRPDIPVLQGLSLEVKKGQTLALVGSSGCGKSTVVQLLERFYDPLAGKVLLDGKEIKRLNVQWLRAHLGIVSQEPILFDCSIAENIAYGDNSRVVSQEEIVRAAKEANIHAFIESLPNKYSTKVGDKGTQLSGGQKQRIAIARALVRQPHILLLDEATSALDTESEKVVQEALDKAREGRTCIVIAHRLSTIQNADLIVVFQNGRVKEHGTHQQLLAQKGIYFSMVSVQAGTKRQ

Row | SMILES | Activity [1] | Activity [2]
1 | CN(C)C(=O)CCSC(SCCC(=O)O)c1cccc(/C=C/c2ccc3ccc(Cl)cc3n2)c1 (stereo not drawn) [MK-571] | inhibitor [+] | 
2 | CC[C@]1(O)C[C@@H]2CN(CCc3c([nH]c4ccccc34)[C@@](C(=O)OC)(c3cc4c(cc3OC)N(C)[C@H]3[C@@](O)(C(=O)OC)[C@H](OC(C)=O)[C@]5(CC)C=CCN6CC[C@]43[C@@H]65)C2)C1 [VINBLASTINE] |  | substrate [+]
3 | Cl.Cl.Cl.O[C@@H](COc1cccc2ncccc12)CN1CCN([C@@H]2c3ccccc3[C@@H]3[C@H](c4ccccc42)C3(F)F)CC1 [ZOSUQUIDAR TRIHYDROCHLORIDE] |  | is not a substrate [-]
